Measurements: US20180318383A1, “PEPTIDE HAVING NEURONAL LOSS PREVENTION AND REGENERATION EFFECTS, AND COMPOSITION CONTAINING SAME” (GEMVAX & KAEL CO., LTD., priority 2015, published 2018)

Experiments:
NSCs [1] = test: ATP assay; type: cell-based, rat; details: 20 μM Aβ25-35 + PEP1
From the text: An ATP concentration was observed using an ATP determination kit and evaluated by an ELISA reader.

NSCs [2] = test: Cell viability of NSCs (CCK-8, MTT, LDH); type: cell-based, rat; details: 48 hours
Experimental: NSCs were isolated from the brain of a rat embryo, cultured and developed. The NSC culture was performed in the same manner as to be described below. Briefly describing, a rat embryo was obtained on day 13 of the embryonic period, and the brain was quickly removed and placed in a petri dish containing cold phosphate-buffered physiological saline (Hank's balanced salt solution; HBSS).
Single cells were isolated from the cerebral cortex, the lateral ganglion eminence, and the embryonic midbrain. These cells were put into a dish pre-treated with L-ornithine and fibronectin, containing calcium and magnesium-free phosphate-buffered physiological saline (PBS) at a density of 20,000 cells/cm^2. In addition, the cells were cultured in an N2 medium (DMEM F/12, […] insulin, 100 mg/L transferrin, 30 nM selenite, […], 20 nM progesterone, 0.2 mM ascorbic acid, […], 8.6 mM D(+) glucose, and […]). The culture was maintained in humidified and 5% CO2 conditions for 4 to 6 days at 37° C.
NSCs were divided into 6 samples, and each sample was treated with […] Aβ25-30 oligomers for 48 hours to identify a suitable concentration. […] Briefly, Aβ25-30 was dissolved in hexafluoroisopropanol to reach a concentration of 1 mM. In addition, the prepared solution was dispensed using a sterilized ultramicrocentrifuge tube. […]
To identify the PEP1 effect in NSCs, PEP1 was treated at various concentrations of 0, 1, 10, 50, 100, and 200 μM for 48 hours. […] The plate was gently washed with PBS several times, and cell viability was measured using a cell counting kit-8 (CCK-8), MTT and lactate dehydrogenase (LDH).
CCK-8 was used as a method for counting living cells by bonding 2-[2-methoxy-4-nitrophenyl]-3-[4-nitrophenyl]-5-[2,4-disulfophenyl]-2H-tetrazolium, monosodium salt (WST-8) with 1-methoxyphenazinium methylsulfate (PMS). […] Cell viability was evaluated by measuring absorbance at 450 nm. […] Cell viability was evaluated by measuring absorbance at 490 nm and reference absorbance at 690 nm. […]

NSCs [3] = test: NSC differentiation in bFGF-free N2 medium (immunostaining); type: cell-based, rat; details: Aβ25-35 increased GFAP-positive and decreased NeuN-positive cells
Experimental: NSC differentiation was induced by changing the cell culture medium to a bFGF (10 ng/ml)-free N2 medium, and the medium was exchanged daily.
Immunostaining was carried out to confirm intracellular expression and locations. For immunostaining, the following antibodies were used: Ki67 (1:100 Abcam), rabbit anti-doublecortin (1 mg/mL; Abcam), rabbit anti-glial fibrillary acidic protein (GFAP) (1:5000; Abcam), rabbit anti-Tuj1 (1 mg/mL; Abcam), mouse anti-GalC (1 mg/mL; Millipore), and rabbit anti-HMGB1 (1:100; Cell Signaling Technology).
However, in a large number of GFAP-positive cells and NeuN-positive cells, such immune responses were increased after differentiation.

GFAP = GFAP expression in 3XTg-AD mice (western blotting); type: in vivo; details: hippocampus and whole brain; s.c. three times a week for two months; vs control and Donepezil, same amount
Experimental: To test the efficacy of PEP1 on AD, AD transgenic mice (3XTg-AD) were purchased from Jackson Laboratory. Genetic characteristics of the transgenic mice are as follows: B6; 129-Psen1tm1Mpm Tg(APPSwe, tauP301L)1Lfa/Mmjax. […] One week after mice were confirmed as pregnant, new mice were delivered and weaned for 3 weeks. Two weeks later, mature mice were obtained.
During the preliminary breeding and the entire period of the experiment, a temperature was maintained at 23±2° C. and a relative humidity was maintained at 60±10%, and then the mice were raised under a 12-hour dark/light cycle. Experimental animals were divided into five groups, and each group included 10 animals. The divided experimental groups are as follows. […]
The PEP1, physiological saline, donepezil and scramble peptide were subcutaneously injected at each concentration three times a week for two months from the age of 12 months, and then two months after the injection, cognitive/memory behavior tests (passive avoidance test and Y maze test) were performed to examine a degree of improvement in cognitive function and memory function. After the brain was extracted to separate the hippocampus, the amounts of amyloid beta in the hippocampus and the whole brain, and the amounts of an amyloid beta oligomer and NFT generated by tau hyperphosphorylation were determined by western blotting and immunostaining. […]

EARPALLTSRLRFIPK (homo sapiens) [PEP1, hTERT-derived peptide consisting of 16 amino acids, telomerase location [611-626]]
ATP level (NSCs [1]): significantly restored | survival ability of NSCs (NSCs [2]; 20 μM Aβ25-35 + PEP1 up to 100 μM, vs 20 μM Aβ25-35 only, MTT, CCK-8, LDH): gradually increased | cell survival ability (NSCs [2]; NSCs, PEP1 alone 0-200 μM, CCK-8, up to 100 μM): not influenced | NSC differentiation into GFAP-positive and NeuN-positive cells (NSCs [3]): the opposite effect was observed | GFAP (GFAP): reduced
